Reference: patent US9481635B2, “Process for preparing gabapentin” (ZACH SYSTEM S.P.A., priority 2013, dated 2016)
Entries after “also recorded” stand apart in the source; their conditions may differ.

Legend:
[1] = Solubility of gabapentin in anhydrous extraction solvents; type: physicochemical
From the text: Thus, the solution of gabapentin in cresol after extraction may be anhydrified, for example, by distillation so as to crystallize the undesired residual salts leaving the gabapentin itself in solution. Said solution of gabapentin in cresol obtained from the removal of the salts by filtration and/or by contro-extraction with water has a chloride content of a few tens of ppm.
The same technique cannot be applied to the corresponding solution in n-butanol of the prior art, since the solubility of gabapentin in the anhydrous solvent is very low; as a result the butanolic solution of gabapentin extraction from the Hofmann end solution, when subjected to anhydrification reaction, leads to the co-precipitation of gabapentin and of these same salts, thus, with no advantage from the point of view of product purity.

[2] = as stated for U.S. Pat. No. 6,518,456; cited from earlier work

**Q.** With NCC1(CC(=O)O)CCCCC1 [gabapentin, 1-(aminomethyl)-cyclohexaneacetic acid] as the compound, how does the solubility ([1]; in anhydrous cresol) read?
**A.** about 20%

**Q.** What about the solubility ([1]; in anhydrous n-butanol) of the same compound?
**A.** virtually zero; also recorded: very low

**Q.** What about the “isoelectric point (pH)” value [2] of the same compound?
**A.** 7.2 pH
